Laboratory results from publication PMC10425210 (The Journal of Clinical Investigation, 2023).

What was measured:
[1] = through week 52 of treatment across clinical studies; cited from earlier work
[2] = Safety and tolerability of subcutaneous LEN dosing; type: in vivo, rhesus macaques
Text: Injections at all dose levels were generally well tolerated without notable clinical observations. […] Grade 1 edema and/or erythema was observed across multiple time points and animals from all 5 dose groups and was fully resolved by week 11 after dose.
All animals were housed at Bioqual Inc. For the in vivo SHIV stock titration study, 8 untreated outbred Indian-origin male rhesus macaques aged 3–5 years were challenged intrarectally per round for a total of 5 challenge rounds using increasing virus doses ranging from 0.625 to 100 TCID50, with the 100 TCID50 round performed twice for increased resolution (Supplemental Table 2). Plasma viral load was measured to confirm the infection status. […] Injection sites were monitored daily by veterinary staff for 2 weeks and then weekly through the end of study. On week 7, 11 animals were challenged by the intrarectal route with 1 mL RPMI containing 100 TCID50 SHIV-SF162P3. Whole blood was collected and processed into plasma and PBMCs as necessary for the assessment of routine hematology and clinical chemistry, viral load analysis, serology, and the bioanalysis of drug levels. Animals were considered protected if they remained SHIV negative by a plasma PCR assay and seronegative by enzyme immunoassay through week 10 after challenge.

[3] = system: HIV-1; design: method as in ref 11, 12 = [11]; PMID 32612233; doi:10.1038/s41586-020-2443-1; 11 Link JO et al Clinical targeting of HIV capsid protein with a long-acting small molecule Nature 2020 584 7822 614 618 10.1038/s41586-020-2443-1 32612233 PMC8188729 || [12]; 12 Yant SR, et al. GS-6207, A potent and selective first-in-class long-acting HIV-1 capsid inhibitor. Conference on Retroviruses and Opportunistic Infections. https://www.croiconference.org/abstract/g; settings: HIV-1 in MT-4 cells; cited from earlier work

## CC(C)(C#Cc1ccc(-c2ccc(Cl)c3c(NS(C)(=O)=O)nn(CC(F)(F)F)c23)c([C@H](Cc2cc(F)cc(F)c2)NC(=O)Cn2nc(C(F)(F)F)c3c2C(F)(F)[C@@H]2C[C@H]32)n1)S(C)(=O)=O [LEN, Lenacapavir]
[1]
  serious adverse events or laboratory abnormalities: no serious adverse events or laboratory abnormalities related to LEN
[2]; all dose levels tested, 5-75 mg/kg
  safety and tolerability of subcutaneous injection: safe and well tolerated
[2]; male, outbred Indian-origin, rhesus monkey, in vivo
  time by which Grade 1 edema and/or erythema was fully resolved: ≤ 11 week after dose
[2]; rhesus monkey, in vivo
  Hematology analyses: no abnormal values
[3]
  EC50: 0.1 nM
